According to US12479831B2, “Substituted N(-methyl-D3)pyridazine-3-carboxamide or M-(methyl-D3)-nicotinamide compounds as IL-12, IL-23 and/or IFNα modulators” (BRISTOL-MYERS SQUIBB COMPANY, priority 2020, dated 2025):

test system: IFNα-Induced STAT Phosphorylation in Human Whole Blood; assay: IFNα-Induced STAT Phosphorylation in Human Whole Blood; assay type: cell-based; settings: 1 h incubation with compound, 1000 U/mL recombinant human IFNα A/D for 15 min, pSTAT5 (pY694) median fluorescence intensity in CD3 positive population, read-out: hWB IC50
Protocol: IFNα-Induced STAT Phosphorylation in Human Whole Blood
After an hour long incubation with compound, human whole blood (drawn with either EDTA or ACD-A as anti-coagulant) was stimulated with 1000 U/mL recombinant human IFNα A/D (R&D Systems 11200-2) for 15 min. The stimulation was stopped by adding Fix/Lyse buffer (BD 558049). Cells were stained with a CD3 FITC antibody (BD 555916), washed, and permeabilized on ice using Perm III buffer (BD 558050). […] The amount of pSTAT5 expression was quantitated by median fluorescence intensity after gating on the CD3 positive population.
IFNα-Induced STAT Phosphorylation in Human Whole Blood Inhibition Data

Structure (SMILES) | IC50
[2H]C([2H])([2H])NC(=O)c1nnc(Nc2cc3ccccc3nn2)cc1Nc1cccc(-c2ncc(F)cn2)c1OC [Example 100, 6-(cinnolin-3-ylamino)-4-((3-(5-fluoropyrimidin-2-yl)-2-methoxyphenyl)amino)-N-(methyl-d3)pyridazine-3-carboxamide] | 165 nM
[2H]C([2H])([2H])NC(=O)c1cnc(Nc2ccccn2)cc1Nc1cccc(-c2ncc(F)cn2)c1OC [Example 70, 4-((3-(5-fluoropyrimidin-2-yl)-2-methoxyphenyl)amino)-N-(methyl-d3)-6-(pyridin-2-ylamino)nicotinamide] | 90 nM
[2H]C([2H])([2H])NC(=O)c1nnc(Nc2cc3n(n2)CCN(C2CC2)C3=O)cc1Nc1cccc(-c2ncc(F)cn2)c1OC [Example 109, 6-((5-cyclopropyl-4-oxo-4,5,6,7-tetrahydropyrazolo[1,5-a]pyrazin-2-yl)amino)-4-((3-(5-fluoropyrimidin-2-yl)-2-methoxyphenyl)amino)-N-(methyl-d3)pyridazine-3-carboxamide] | 262 nM
[2H]C([2H])([2H])NC(=O)c1nnc(NC(=O)C2CC2)cc1Nc1cccc(-c2ncc(C(=O)N3CCC3)cn2)c1OC [Example 48, 4-((3-(5-(azetidine-1-carbonyl)pyrimidin-2-yl)-2-methoxyphenyl)amino)-6-(cyclopropanecarboxamido)-N-(methyl-d3)pyridazine-3-carboxamide] | 118 nM
[2H]C([2H])([2H])NC(=O)c1nnc(NC(=O)C2CC2)cc1Nc1cccc(-c2cnc(C(=O)N3CCC3)cn2)c1OC [Example 40, 4-((3-(5-(azetidine-1-carbonyl)pyrazin-2-yl)-2-methoxyphenyl)amino)-6-(cyclopropanecarboxamido)-N-(methyl-d3)pyridazine-3-carboxamide] | 360 nM
[2H]C([2H])([2H])NC(=O)c1nnc(Nc2ccn(C3CC3)n2)cc1Nc1cccc(-c2ncc(F)cn2)c1OC [Example 78, 6-((1-cyclopropyl-1H-pyrazol-3-yl)amino)-4-((3-(5-fluoropyrimidin-2-yl)-2-methoxyphenyl)amino)-N-(methyl-d3)pyridazine-3-carboxamide] | 192 nM
[2H]C([2H])([2H])NC(=O)c1cnc(Nc2cnc(C#N)cn2)cc1Nc1cccc(-c2ncc(F)cn2)c1OC [Example 71, 6-((5-cyanopyrazin-2-yl)amino)-4-((3-(5-fluoropyrimidin-2-yl)-2-methoxyphenyl)amino)-N-(methyl-d3)nicotinamide] | 278 nM
[2H]C([2H])([2H])NC(=O)c1nnc(NC(=O)C2CC2)cc1Nc1cc(F)cc(-c2ccc(C(C)(C)O)nn2)c1OC [Example 22, 6-(cyclopropanecarboxamido)-4-((5-fluoro-3-(6-(2-hydroxypropan-2-yl)pyridazin-3-yl)-2-methoxyphenyl)amino)-N-(methyl-d3)pyridazine-3-carboxamide] | 120 nM
[2H]C([2H])([2H])NC(=O)c1nnc(NC(=O)C2CC2)cc1Nc1cc(F)cc(-c2ncc(C3(O)CCC3)cn2)c1OC [Example 28, 6-(cyclopropanecarboxamido)-4-((5-fluoro-3-(5-(1-hydroxycyclobutyl)pyrimidin-2-yl)-2-methoxyphenyl)amino)-N-(methyl-d3)pyridazine-3-carboxamide] | 170 nM
[2H]C([2H])([2H])NC(=O)c1nnc(NC(=O)C2CC2)cc1Nc1cccc(-c2cnc(C(=O)NC)cn2)c1OC [Example 39, 6-(cyclopropanecarboxamido)-4-((2-methoxy-3-(5-(methylcarbamoyl)pyrazin-2-yl)phenyl)amino)-N-(methyl-d3)pyridazine-3-carboxamide] | 218 nM
[2H]C([2H])([2H])NC(=O)c1nnc(Nc2ccc(C(F)(F)F)nn2)cc1Nc1cccc(-c2ncccn2)c1OC [Example 98, 4-((2-methoxy-3-(pyrimidin-2-yl)phenyl)amino)-N-(methyl-d3)-6-((6-(trifluoromethyl)pyridazin-3-yl)amino)pyridazine-3-carboxamide] | 112 nM
[2H]C([2H])([2H])NC(=O)c1cnc(Nc2cnc(C#N)cn2)cc1Nc1cccc(-c2ncccn2)c1OC [Example 72, 6-((5-cyanopyrazin-2-yl)amino)-4-((2-methoxy-3-(pyrimidin-2-yl)phenyl)amino)-N-(methyl-d3)nicotinamide] | 168 nM
[2H]C([2H])([2H])NC(=O)c1nnc(NC(=O)C2CC2)cc1Nc1cccc(-c2cnc(N3CCN(C(C)=O)CC3)cn2)c1OC [Example 59, 4-((3-(5-(4-acetylpiperazin-1-yl)pyrazin-2-yl)-2-methoxyphenyl)amino)-6-(cyclopropanecarboxamido)-N-(methyl-d3)pyridazine-3-carboxamide] | 121 nM

These reach a lower IC50. Values come first.

IC50 | Structure (SMILES)
87 nM | [2H]C([2H])([2H])NC(=O)c1cnc(Nc2ccn(CC)n2)cc1Nc1cccc(-c2ncc(F)cn2)c1OC [Example 67, 6-((1-ethyl-1H-pyrazol-3-yl)amino)-4-((3-(5-fluoropyrimidin-2-yl)-2-methoxyphenyl)amino)-N-(methyl-d3)nicotinamide]
39 nM | [2H]C([2H])([2H])NC(=O)c1nnc(NC(=O)C2CC2)cc1Nc1cccc(-c2ncc(C(O)(CF)CF)cn2)c1OC [Example 29, 6-(cyclopropanecarboxamido)-4-((3-(5-(1,3-difluoro-2-hydroxypropan-2-yl)pyrimidin-2-yl)-2-methoxyphenyl)amino)-N-(methyl-d3)pyridazine-3-carboxamide]
79 nM | [2H]C([2H])([2H])NC(=O)c1nnc(Nc2ccc(C(C)(C)O)cn2)cc1Nc1cccc(-c2ncc(F)cn2)c1OC [Example 103, 4-((3-(5-fluoropyrimidin-2-yl)-2-methoxyphenyl)amino)-6-((5-(2-hydroxypropan-2-yl)pyridin-2-yl)amino)-N-(methyl-d3)pyridazine-3-carboxamide]
63 nM | [2H]C([2H])([2H])NC(=O)c1nnc(NC(=O)C2CC2)cc1Nc1cccc(-c2ncc(C3(O)CCC3)cn2)c1OC [Example 27, 6-(cyclopropanecarboxamido)-4-((3-(5-(1-hydroxycyclobutyl)pyrimidin-2-yl)-2-methoxyphenyl)amino)-N-(methyl-d3)pyridazine-3-carboxamide]
49 nM | [2H]C([2H])([2H])NC(=O)c1nnc(Nc2cc(C(C)(C)O)n(C)n2)cc1Nc1cccc(-c2ncc(F)cn2)c1OC [Example 82, 4-((3-(5-fluoropyrimidin-2-yl)-2-methoxyphenyl)amino)-6-((5-(2-hydroxypropan-2-yl)-1-methyl-1H-pyrazol-3-yl)amino)-N-(methyl-d3)pyridazine-3-carboxamide]
81 nM | [2H]C([2H])([2H])NC(=O)c1nnc(Nc2cc3n(n2)CCN(C)C3=O)cc1Nc1cccc(-c2ncc(F)cn2)c1OC [Example 107, 4-((3-(5-Fluoropyrimidin-2-yl)-2-methoxyphenyl)amino)-N-(methyl-d3)-6-((5-methyl-4-oxo-4,5,6,7-tetrahydropyrazolo[1,5-a]pyrazin-2-yl)amino)pyridazine-3-carboxamide]
49 nM | [2H]C([2H])([2H])NC(=O)c1cnc(Nc2cc(C)n(C)n2)cc1Nc1cccc(-c2ncc(F)cn2)c1OC [Example 63, 6-((1,5-dimethyl-1H-pyrazol-3-yl)amino)-4-((3-(5-fluoropyrimidin-2-yl)-2-methoxyphenyl)amino)-N-(methyl-d3)nicotinamide]
